Consider 17 compounds from US6395735B2, “Pharmaceutical compounds” (Eli Lilly and Company, priority 1997, dated 2002).

One test has as its target T1, human m1 receptor (Homo sapiens, UniProt P11229).
T1 construct: expressed in transfected cells; host or cells: CHO (Chinese hamster) cells
T1 sequence (P11229 1-460): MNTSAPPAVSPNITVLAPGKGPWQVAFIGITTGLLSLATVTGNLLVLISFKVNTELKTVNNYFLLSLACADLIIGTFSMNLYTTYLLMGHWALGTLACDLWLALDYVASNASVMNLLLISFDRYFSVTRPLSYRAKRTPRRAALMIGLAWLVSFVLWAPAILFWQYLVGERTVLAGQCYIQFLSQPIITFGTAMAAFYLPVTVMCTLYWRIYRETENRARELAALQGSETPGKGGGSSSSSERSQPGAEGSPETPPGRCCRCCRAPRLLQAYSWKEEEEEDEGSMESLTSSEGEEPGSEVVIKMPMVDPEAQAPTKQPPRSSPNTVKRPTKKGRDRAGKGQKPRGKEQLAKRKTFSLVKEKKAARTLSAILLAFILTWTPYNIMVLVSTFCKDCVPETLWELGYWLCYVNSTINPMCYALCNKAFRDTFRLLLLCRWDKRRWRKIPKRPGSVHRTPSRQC
Put plainly: m1 primary assay: arachidonic acid release in CHO-m1 cells. Format: cell-based. The procedure:
CHO (Chinese hamster transfected with the human m1 receptor (CHO-m1) were grown to confluency in flasks using Dulbecco's Modified Eagle Medium (DMEM) containing 10% fetal bovine serum. Cells were detached with 0.05% trypsin, 0.53 mM EDTA. Cells were collected after centrifugation in a Beckman centrifuge at 1000 rpm for 10 minutes, diluted with culture medium (400,000 cells/ml) Aarachidonic acid was added to the cell solution at a 1:2000 ratio of a 1 mCi/ml stock and cells were plated at 40,000 cells per well into 96 well plates and incubated for 18 to 24 hours at 37 C and 5% CO2. Following the incubation, the medium was removed and the cells were washed with D-ME medium containing 2 mg/mL of fatty acid free BSA (250 L/well). The test compound of interest was diluted in D-ME-BSA and added to each well (150 L/well), incubated for 120 minutes at 37 C in 5% CO2. 80 µL of supernatant was transferred to Wallac 96 well plates containing 110 µL/well of Supermax scintillation cocktail at pH 9.0. Plates were counted in a Wallae microbeta counter.
Representative results from the m1 primary assay are as follows: […]

A further test addresses T2, A9L-m1 (Homo sapiens, UniProt P11229).
T2 sequence (P11229 1-460): T1 sequence (P11229 1-460)
The experiment in a line: m1 secondary assay: PI stimulation in A9L-m1. The format is cell-based. The following applies: for Emax: A9L-m1, relative to carbachol, read-out: Pl stim. A9L-m1 % Max of carbachol; for EC50: A9L-m1, read-out: ED-50 Pl stim A9L-m1, nm.

Consider `CN(C)/C=N/c1ccc2c(c1)[C@@H](NC(=O)c1ccc(Cl)cc1)[C@H](O)C2` [Compound 118], for which, on human m1 receptor, the “Max. % activity @ 5 μM” value was 57.4%. For `O=C(N[C@@H]1c2cc(/N=C/N3CCOCC3)ccc2C[C@H]1O)c1ccc(-c2ccccc2)cc1` [Compound 119], on human m1 receptor, the “Max. % activity @ 5 μM” value worked out at 66.4%. For the compound `O=C(N[C@@H]1c2cc(/N=C/N3CCCC3)ccc2C[C@H]1O)c1ccc(-c2ccccc2)cc1` [Compound 120], the “Max. % activity @ 5 μM” value at human m1 receptor turned out to be 92.5%. In the case of `O=C(N[C@@H]1c2cc(/N=C/N3CCCC3)ccc2C[C@H]1O)c1ccc(Cl)c(Cl)c1` [Compound 121], at human m1 receptor, the “Max. % activity @ 5 μM” value was determined as 45.4%. As to `O=C(NC1c2cc(/N=C/N3CCCC3)ccc2C[C@H]1O)c1ccc(Cl)cc1` (some centres unmarked) [Compound 122], the “Max. % activity @ 5 μM” value on human m1 receptor turned out to be 80.9%.

For `O=C(NC1c2cc(/N=C/N3CCCC3)ccc2CC1O)c1cccc(C(F)(F)F)c1` (centres unmarked) [Compound 123], the “Max. % activity @ 5 μM” value on human m1 receptor was found to be 76.7%. With `C/C(=N\c1ccc2c(c1)C(NC(=O)c1cccc(C(F)(F)F)c1)C(O)C2)N(C)C` (centres unmarked) [Compound 124], the “Max. % activity @ 5 μM” value on human m1 receptor turned out to be 82.2%.

For the compound `CN1CCC/C1=N\c1ccc2c(c1)C(NC(=O)c1ccc(-c3ccccc3)cc1)[C@H](O)C2` (some centres unmarked) [Compound 125], the “Max. % activity @ 5 μM” value at human m1 receptor worked out at 114.0%.

Consider `CN(C)/C=N/c1ccc2c(c1)C(NC(=O)c1cccc(C(F)(F)F)c1)C(O)C2.Cl` (centres unmarked) [Compound 126], for which the “Max. % activity @ 5 μM” value at human m1 receptor is 102.2%. On the same count and under the same terms, then `CN(C)/C=N/c1ccc2c(c1)C(NC(=O)c1ccc(Cl)c(Cl)c1)C(O)C2.Cl` (centres unmarked) [Compound 127], with 69.8%. On to `C/C(=N\c1ccc2c(c1)C(NC(=O)c1ccc(Cl)c(Cl)c1)C(O)C2)N(C)C` (centres unmarked) [Compound 128], for which, at A9L-m1, the Emax worked out at 59.2% and the EC50 came out at 95.3 nM.

On to `Cc1cc(C(=O)NC2c3cc(/N=C/N4CCCC4)ccc3C[C@@H]2O)ccc1Br` (some centres unmarked) [Compound 129], for which, at A9L-m1, the Emax came to 42% and the EC50 was found to be 41.3 nM. `Cc1ccc(C(=O)NC2c3cc(/N=C/N4CCCC4)ccc3C[C@@H]2O)cc1I` (some centres unmarked) [Compound 130]: at A9L-m1, the Emax turned out to be 64% and the EC50 is 9.2 nM.

In the case of `O=C(NC1c2cc(/N=C/N3CCCC3)ccc2C[C@@H]1O)c1ccc(F)c(Br)c1` (some centres unmarked) [Compound 131], on A9L-m1, the Emax came out at 70.5% and the EC50 amounted to 43.6 nM. As for `Cc1ccc(C(=O)NC2c3cc(/N=C/N4CCCC4)ccc3C[C@@H]2O)cc1Br` (some centres unmarked) [Compound 132], on A9L-m1, the Emax worked out at 59% and the EC50 amounted to 183 nM.

Regarding `O=C(NC1c2cc(/N=C/N3CCCC3)ccc2C[C@@H]1O)c1ccc(F)c(Cl)c1` (some centres unmarked) [Compound 133], at A9L-m1, the Emax stood at 40% and the EC50 was found to be 190 nM. For the compound `O=C(NC1c2cc(/N=C/N3CCCC3)ccc2C[C@H]1O)c1ccc(-c2ccccc2)cc1` (some centres unmarked) [Compound 134], the “Max. % activity @ 5 μM” value at human m1 receptor came to 75.9%.
